Laboratory results taken from US11419852B2, “Beta-lactam compounds or salts thereof for use in long-acting prevention or treatment of a glucose metabolism disorder” (GLYCOLYSIS BIOMED CO., LTD., priority 2019, dated 2022).
Marks after values point to notes of the source that are not given here.

What was measured:
Format in all cases: in vivo
[1] = Body weight of mice recorded weekly; conditions: Ex 3: db/db mice, daily dosing 3 weeks at doses of Table 10
Description: (§1) Four to five weeks old db/db mice (BKS.Cg-Dock7^m+/+Lepr^db/JNarl) and m/m mice (BKS.Cg-Dock7^m+/Dock7^m+) were obtained from National Laboratory Animal Center ([…], Taiwan). […] PMI Nutrition International, Brentwood, Mo.) and water ad libitum. […] The mouse body weight (bw) and the amounts of water and food intake were recorded weekly for the entire study period.

[2] = Food and water intake of mice; conditions: for Food intake in db/db mice / Water intake in db/db mice: Ex 3, P<0.05; for Diet intake / Water intake: Ex 3: db/db mice, daily dosing 3 weeks at doses of Table 10
Description: as §1

db/db mice [3] = test: Oral glucose tolerance test (OGTT); parameters: OGTT AUC: unit not given here; conditions: for OGTT AUC: Ex 3: db/db mice, daily dosing 3 weeks at doses of Table 10
Description: Four to five weeks old db/db mice (BKS.Cg-Dock7^m+/+Lepr^db/JNarl) and m/m mice (BKS.Cg-Dock7^m+/Dock7^m+) were obtained from National Laboratory Animal Center ([…], Taiwan). […] PMI Nutrition International, Brentwood, Mo.) and water ad libitum. […] Blood was sampled from the tail vein, and FPG levels were measured and recorded as the basic blood glucose levels. […] The total area under the curve (AUC) in OGTT was plotted and calculated by the Area Under Coordinates Program (StatsToDo Server, Department of Obstetrics and Gynecology, Chinese University of Hong Kong).

db/db mice [4] = test: Plasma biochemical parameters (AST, ALT, BUN, Cr, HbA1c)
Description: Inflammatory markers such as serum aspartate aminotransferase (AST), alanine aminotransferase (ALT), blood urea nitrogen (BUN), creatinine (Cr), and hemoglobin Alc (HbAlc) were measured using a BMC-Hitachi 717 chemistry auto analyzer.

[5] = Ex 3, after the treatments had been stopped for 6 weeks
[6] = Ex 3: db/db mice, daily dosing 3 weeks at doses of Table 10, week 9

Row | Compound | Body weight ([1]; Baseline) | Body weight ([1]; Final) | Body weight ([1]; Week 3) | Body weight ([1]; Week 6 (stopped for 3 weeks)) | Body weight ([1]; Week 9 (stopped for 6 weeks)) | Food intake in db/db mice [2] | Water intake in db/db mice [2] | Diet intake [2] | Water intake [2] | OGTT AUC (db/db mice [3]; Week 6 (stopped for 3 weeks)) | OGTT AUC (db/db mice [3]; Week 9 (stopped for 6 weeks)) | Level of AST (db/db mice [4]; [5]) | Level of HbA1c (db/db mice [4]; [5]) | ALT (db/db mice [4]; [6]) | AST (db/db mice [4]; [6]) | BUN (db/db mice [4]; [6]) | Creatinine (db/db mice [4]; [6]) | HbA1c (db/db mice [4]; [6]) | ALT (db/db mice [4]; mouse, in vivo) | AST (db/db mice [4]; mouse, in vivo) | also measured
1 | CO/N=C(\C(=O)N[C@@H]1C(=O)N2C(C(=O)O)=C(CSc3nc(=O)c(=O)[nH]n3C)CS[C@H]12)c1csc(N)n1 [CEFT, ceftriaxone] | 30.0 ± 1^b | 37.8 ± 2^c | 32.9 ± 1^cd | 34.1 ± 2^b | 38.8 ± 2^c | significantly reduced | significantly reduced | 5.0 ± 1^b g/mice/day | 7.1 ± 1^b mL/mice/day | 1276 ± 69^b | 1483 ± 37^ce | reduce | reduce | 80 ± 7^bc U/L | 104 ± 10^ac U/L | 38 ± 2^bc mg/dL | 0.428 ± 0.01^b mg/dL | 4.9 ± 0.2^c % | – | – | Level of ALT (db/db mice [4]; [5]): reduce; Level of BUN (db/db mice [4]; [5]): reduce; Level of Cr (db/db mice [4]; [5]): reduce
2 | C[C@@H](O)[C@H]1C(=O)N2C(C(=O)O)=C(S[C@@H]3CN[C@H](C(=O)N(C)C)C3)[C@H](C)[C@H]12 [MER, meropenem hydrate] | 28.3 ± 1^b | 36.0 ± 2^bc | 33.6 ± 1^cd | 37.1 ± 1b^c | 38.2 ± 2^c | – | – | 5.9 ± 1^c g/mice/day | 14.7 ± 1^e mL/mice/day | 1599 ± 39^c | 1648 ± 61^def | reduce | – | 89 ± 5^bcd U/L | 93 ± 8^ab U/L | 43 ± 2^bd mg/dL | 0.488 ± 0.03^cde mg/dL | 6.9 ± 0.3^e % | – | – | –
3 | CC1(C)S[C@@H]2[C@H](NC(=O)Cc3ccccc3)C(=O)N2[C@H]1C(=O)O [PEN, penicillin G] | 31.1 ± 1^b | 32.2 ± 1^b | 25.7 ± 1^b | 24.6 ± 1^a | 32.4 ± 1^b | significantly reduced | significantly reduced | 4.0 ± 0.9^a g/mice/day | 8.3 ± 4^c mL/mice/day | 1088 ± 91^b | 1181 ± 69^b | – | reduce | – | – | – | – | 4.2 ± 0.2^a % | 72 ± 20^ab U/L | 169 ± 24^de U/L | Regulation of blood glucose homeostasis (OGTT glucose vs G8) (db/db mice [3]; Ex 3, medications stopped for at least 3 weeks (FIG. 6A, 6B)): still effective; BUN (db/db mice [4]; mouse, in vivo): 41 ± 5^bd mg/dL; Creatinine (db/db mice [4]; mouse, in vivo): 0.424 ± 0.02^ab mg/dL
4 | tienam | – | – | – | – | – | – | – | – | – | – | – | – | – | – | – | – | – | – | 104 ± 10^cd U/L | 212 ± 43^e U/L | BUN (db/db mice [4]; mouse, in vivo): 47 ± 4^d mg/dL; Creatinine (db/db mice [4]; mouse, in vivo): 0.473 ± 0.05^be mg/dL
